In PubChem BioAssay (NCI):
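1) Cells in 96-well plates. 2) Compound, 48 h, 5 concentrations. 3) Linear interpolation between surrounding doses. 4) Unreached endpoint = highest concentration. Abbreviation: GI50, concentration required for 50% inhibition of growth. TGI marks complete inhibition of growth.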

How the values were obtained:
Test in all cases: NCI-60 cell line screen, 48 h
T-47D breast = tested on: T-47D breast
OVCAR-3 ovarian = tested on: OVCAR-3 ovarian
OVCAR-8 ovarian = tested on: OVCAR-8 ovarian
SW-620 colon = tested on: SW-620 colon
UO-31 renal = tested on: UO-31 renal
MDA-MB-231 breast = tested on: MDA-MB-231 breast
A549 NSCLC = tested on: A549 NSCLC
UACC-62 melanoma = tested on: UACC-62 melanoma
HOP-62 NSCLC = tested on: HOP-62 NSCLC
HCT-116 colon = tested on: HCT-116 colon
SF-539 CNS = tested on: SF-539 CNS
NCI-H23 lung = tested on: NCI-H23 lung
OVCAR-4 ovarian = tested on: OVCAR-4 ovarian
ACHN renal = tested on: ACHN renal
NCI/ADR-RES ovarian = tested on: NCI/ADR-RES ovarian
SF-268 CNS = tested on: SF-268 CNS
SK-MEL-2 melanoma = tested on: SK-MEL-2 melanoma
IGROV1 ovarian = tested on: IGROV1 ovarian
NCI-H226 lung = tested on: NCI-H226 lung
SR leukemia = tested on: SR leukemia
OVCAR-5 ovarian = tested on: OVCAR-5 ovarian
786-0 renal = tested on: 786-0 renal
SK-OV-3 ovarian = tested on: SK-OV-3 ovarian
COLO 205 colon = tested on: COLO 205 colon
CCRF-CEM leukemia = tested on: CCRF-CEM leukemia
TK-10 renal = tested on: TK-10 renal
SNB-19 CNS = tested on: SNB-19 CNS
M14 melanoma = tested on: M14 melanoma
PC-3 prostate = tested on: PC-3 prostate
HCT-15 colon = tested on: HCT-15 colon
HCC-2998 colon = tested on: HCC-2998 colon
SNB-75 CNS = tested on: SNB-75 CNS
CAKI-1 renal = tested on: CAKI-1 renal
KM12 colon = tested on: KM12 colon
U251 CNS = tested on: U251 CNS
SF-295 CNS = tested on: SF-295 CNS
SN12C renal = tested on: SN12C renal
MDA-MB-468 breast = tested on: MDA-MB-468 breast
HL-60(TB) leukemia = tested on: HL-60(TB) leukemia
UACC-257 melanoma = tested on: UACC-257 melanoma
A498 renal = tested on: A498 renal
EKVX NSCLC = tested on: EKVX NSCLC
LOX IMVI melanoma = tested on: LOX IMVI melanoma
DU-145 prostate = tested on: DU-145 prostate
NCI-H460 lung = tested on: NCI-H460 lung
HS 578T breast = tested on: HS 578T breast
SK-MEL-28 melanoma = tested on: SK-MEL-28 melanoma
K-562 leukemia = tested on: K-562 leukemia
MALME-3M melanoma = tested on: MALME-3M melanoma
MOLT-4 leukemia = tested on: MOLT-4 leukemia
HT29 colon = tested on: HT29 colon
HOP-92 NSCLC = tested on: HOP-92 NSCLC
RPMI-8226 leukemia = tested on: RPMI-8226 leukemia
NCI-H522 lung = tested on: NCI-H522 lung
MDA-MB-435 = tested on: MDA-MB-435
RXF 393 renal = tested on: RXF 393 renal
MCF7 breast = tested on: MCF7 breast
SK-MEL-5 melanoma = tested on: SK-MEL-5 melanoma
BT-549 breast = tested on: BT-549 breast

CCOC(=O)c1ccc(NC(=S)NC(=O)c2ccc(NC(=O)C(C)C)cc2OC)cc1
GI50 (T-47D breast): 2.35 µM | TGI (T-47D breast): 11.2 µM | GI50 (OVCAR-3 ovarian): 15.3 µM | TGI (OVCAR-3 ovarian): > 100 µM | GI50 (OVCAR-8 ovarian): 16.4 µM | TGI (OVCAR-8 ovarian): > 100 µM | GI50 (SW-620 colon): 8.22 µM | TGI (SW-620 colon): > 100 µM | GI50 (UO-31 renal): 11.3 µM | TGI (UO-31 renal): 79.3 µM | GI50 (MDA-MB-231 breast): 16.2 µM | TGI (MDA-MB-231 breast): 53.2 µM | GI50 (A549 NSCLC): 33.4 µM | TGI (A549 NSCLC): > 100 µM | GI50 (UACC-62 melanoma): 11.7 µM | TGI (UACC-62 melanoma): 53.7 µM | GI50 (HOP-62 NSCLC): 22.1 µM | TGI (HOP-62 NSCLC): 72.3 µM | GI50 (HCT-116 colon): 3.99 µM | TGI (HCT-116 colon): 51.5 µM | GI50 (SF-539 CNS): 27.7 µM | TGI (SF-539 CNS): > 100 µM | GI50 (NCI-H23 lung): 3.71 µM | TGI (NCI-H23 lung): 29.7 µM | GI50 (OVCAR-4 ovarian): 9.21 µM | TGI (OVCAR-4 ovarian): 71.6 µM | GI50 (ACHN renal): 26 µM | TGI (ACHN renal): > 100 µM | GI50 (NCI/ADR-RES ovarian): 12.6 µM | TGI (NCI/ADR-RES ovarian): 48.3 µM | GI50 (SF-268 CNS): 20.7 µM | TGI (SF-268 CNS): > 100 µM | GI50 (SK-MEL-2 melanoma): 14.9 µM | TGI (SK-MEL-2 melanoma): 62.9 µM | GI50 (IGROV1 ovarian): 19.3 µM | TGI (IGROV1 ovarian): > 100 µM | GI50 (NCI-H226 lung): 4.46 µM | TGI (NCI-H226 lung): 36.8 µM | GI50 (SR leukemia): 6.04 µM | TGI (SR leukemia): > 100 µM | GI50 (OVCAR-5 ovarian): 29.7 µM | TGI (OVCAR-5 ovarian): > 100 µM | GI50 (786-0 renal): 21.9 µM | TGI (786-0 renal): 60.4 µM | GI50 (SK-OV-3 ovarian): 35.6 µM | TGI (SK-OV-3 ovarian): > 100 µM | GI50 (COLO 205 colon): 15.5 µM | TGI (COLO 205 colon): 42.3 µM | GI50 (CCRF-CEM leukemia): 2.93 µM | TGI (CCRF-CEM leukemia): 50 µM | GI50 (TK-10 renal): 22.3 µM | TGI (TK-10 renal): 76.6 µM | GI50 (SNB-19 CNS): 14.8 µM | TGI (SNB-19 CNS): 66.9 µM | GI50 (M14 melanoma): 5.83 µM | TGI (M14 melanoma): 63.1 µM | GI50 (PC-3 prostate): 6.41 µM | TGI (PC-3 prostate): 69.9 µM | GI50 (HCT-15 colon): 4.24 µM | TGI (HCT-15 colon): > 100 µM | GI50 (HCC-2998 colon): 20.3 µM | TGI (HCC-2998 colon): > 100 µM | GI50 (SNB-75 CNS): 3.54 µM | TGI (SNB-75 CNS): 62.7 µM | GI50 (CAKI-1 renal): 17.8 µM | TGI (CAKI-1 renal): 80.8 µM | GI50 (KM12 colon): 6.37 µM | TGI (KM12 colon): > 100 µM | GI50 (U251 CNS): 12.3 µM | TGI (U251 CNS): 46 µM | GI50 (SF-295 CNS): 8.33 µM | TGI (SF-295 CNS): 45.4 µM | GI50 (SN12C renal): 28.5 µM | TGI (SN12C renal): > 100 µM | GI50 (MDA-MB-468 breast): 2.04 µM | TGI (MDA-MB-468 breast): 8.09 µM | GI50 (HL-60(TB) leukemia): 2.45 µM | TGI (HL-60(TB) leukemia): 25.2 µM | GI50 (UACC-257 melanoma): 12.5 µM | TGI (UACC-257 melanoma): > 100 µM | GI50 (A498 renal): 28.1 µM | TGI (A498 renal): > 100 µM | GI50 (EKVX NSCLC): 15.7 µM | TGI (EKVX NSCLC): 99.8 µM | GI50 (LOX IMVI melanoma): 11.6 µM | TGI (LOX IMVI melanoma): > 100 µM | GI50 (DU-145 prostate): 34.7 µM | TGI (DU-145 prostate): > 100 µM | GI50 (NCI-H460 lung): 7.17 µM | TGI (NCI-H460 lung): > 100 µM | GI50 (HS 578T breast): 31.7 µM | TGI (HS 578T breast): > 100 µM | GI50 (SK-MEL-28 melanoma): 14 µM | TGI (SK-MEL-28 melanoma): > 100 µM | GI50 (K-562 leukemia): 3.28 µM | TGI (K-562 leukemia): > 100 µM | GI50 (MALME-3M melanoma): 4.28 µM | TGI (MALME-3M melanoma): 32.6 µM | GI50 (MOLT-4 leukemia): 2.22 µM | TGI (MOLT-4 leukemia): 5.97 µM | GI50 (HT29 colon): 39.3 µM | TGI (HT29 colon): > 100 µM | GI50 (HOP-92 NSCLC): 13.8 µM | TGI (HOP-92 NSCLC): 44.8 µM | GI50 (RPMI-8226 leukemia): 2.66 µM | TGI (RPMI-8226 leukemia): 17.5 µM | GI50 (NCI-H522 lung): 3.79 µM | TGI (NCI-H522 lung): > 100 µM | GI50 (MDA-MB-435): 15.2 µM | TGI (MDA-MB-435): > 100 µM | GI50 (RXF 393 renal): 15.7 µM | TGI (RXF 393 renal): 82.5 µM | GI50 (MCF7 breast): 3.26 µM | TGI (MCF7 breast): 37.2 µM | GI50 (SK-MEL-5 melanoma): 2.14 µM | TGI (SK-MEL-5 melanoma): 5.79 µM | GI50 (BT-549 breast): 1.97 µM | TGI (BT-549 breast): 6.52 µM
